This assay deals with ERα (Homo sapiens (Human), UniProt P03372). As to the kind of experiment: Estrogen receptor degradation activity: breast cancer cell ERα in cell western assay. The class given is cell-based. The settings on record: MCF7 cells; for % Degradation At 0.3 μM: 4 hours, normalised to fulvestrant 0.1 μM and DMSO. As to the method: Said test involves measuring the in vitro degradation activity of the compounds of the Table 1a.
The measurements of the degradation activities were made using a breast cancer cell ERα in cell western assay as described hereunder.
MCF7 cells (ATCC) were seeded in 384 wells microplate (collagen coated) at a concentration of 10000 cells/30 μL per well in red phenol free MEM alpha medium (invitrogen) containing 5% charcoal dextran striped FBS. The following day, 9 points serial 1:5 dilution of each compound was added to the cells in 2.5 μL at final concentrations ranging from 0.3-0.0000018 μM (in table 2), or 0.1 μM for fulvestrant (using as positive control). At 4 hours post compound addition the cells were fixed by adding 25 μL of formalin (final concentration 5% formalin containing 0.1% triton) for 10 minutes at room temperature and then washed twice with PBS. Then, 50 μL of LI-COR blocking buffer containing 0.1% Triton was added to plate for 30 minutes at room temperature. LI-COR blocking buffer was removed and cells were incubated overnight at cold room with 50 μL anti-ER rabbit monoclonal antibody (Thermo scientific MA1-39540) diluted at 1:1000 in LI-COR blocking buffer containing 0.1% tween-20. Wells which were treated with blocking buffer but no antibody were used as background control. Wells were washed twice with PBS (0.1% tween-20) and incubated at 37° C. for 60 minutes in LI-COR (0.1% tween-20) containing goat anti-rabbit antibody Alexa 488 (1:1000) and Syto-64 a DNA dye (2 μM final concentration). Cells were then washed 3 times in PBS and scanned in ACUMEN explorer (TTP-Labtech). Integrated intensities in the green fluorescence and red fluorescence were measured to determine the levels of ERα and DNA respectively.
The degradation activity with respect to estrogen receptors in this test is given by the concentration which degrades 50% of the estrogen receptor (or IC50) in nM.
The % of ERα levels decrease were determined as follows: % inhibition=100*(1−(sample−fulvestrant:DMSO−fulvestrant)).

Where [1] appears, read: 4 hours post compound addition, concentration which degrades 50% of the estrogen receptor.

Structures are written as SMILES.

A word on the IC50: it is the concentration at which inhibition is half-maximal. The low end stands for greater potency, the high end for weaker potency.

ERα, sequence (P03372 whole entry): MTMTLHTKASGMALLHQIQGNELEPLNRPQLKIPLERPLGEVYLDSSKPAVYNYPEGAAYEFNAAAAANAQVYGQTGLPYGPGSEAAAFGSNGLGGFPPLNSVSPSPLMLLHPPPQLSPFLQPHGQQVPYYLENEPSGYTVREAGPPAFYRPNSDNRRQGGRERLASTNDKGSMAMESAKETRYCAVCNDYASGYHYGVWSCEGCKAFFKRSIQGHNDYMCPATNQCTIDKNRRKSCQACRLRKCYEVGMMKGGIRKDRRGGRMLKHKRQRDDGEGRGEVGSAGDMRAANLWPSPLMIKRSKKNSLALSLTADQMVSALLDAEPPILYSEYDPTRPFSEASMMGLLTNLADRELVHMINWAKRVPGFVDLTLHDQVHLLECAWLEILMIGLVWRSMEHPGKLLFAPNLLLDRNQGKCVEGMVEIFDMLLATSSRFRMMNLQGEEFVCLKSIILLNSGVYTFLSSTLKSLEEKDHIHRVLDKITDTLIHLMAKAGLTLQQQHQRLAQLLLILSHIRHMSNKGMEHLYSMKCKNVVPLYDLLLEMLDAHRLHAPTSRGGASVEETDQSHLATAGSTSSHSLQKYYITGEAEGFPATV

For the compound `C[C@H]1CC[C@H](C2=C(c3ccc(C=C4CN(CCCF)C4)cc3)c3ccc(C(=O)O)cc3CCC2)CC1` [Compound 56, 9-(4-((1-(3-fluoropropyl)azetidin-3-ylidene)methyl)phenyl)-8-(trans-4-methylcyclohexyl)-6,7-dihydro-5H-benzo[7]annulene-3-carboxylic acid], the “% Degradation At 0.3 μM” value is on record as 92%. Besides, the IC50 under setting [1] is 0.7 nM.

Regarding `CC(F)(F)c1cc(F)ccc1C1=C(c2ccc(C=C3CN(CCCF)C3)cc2)c2ccc(C(=O)O)cc2CCC1` [Compound 15, 8-(2-(1,1-difluoroethyl)-4-fluorophenyl)-9-(4-((1-(3-fluoropropyl)azetidin-3-ylidene)methyl)phenyl)-6,7-dihydro-5H-benzo[7]annulene-3-carboxylic acid], the “% Degradation At 0.3 μM” value came out at 91%. The compound further displayed an IC50 under setting [1] of 0.4 nM.

With `Cc1cc(C2=C(c3ccc(C=C4CN(CCCF)C4)cc3)c3ccc(C(=O)O)cc3CCC2)ccc1C(F)F` [Compound 28, 8-(4-(difluoromethyl)-3-methylphenyl)-9-(4-((1-(3-fluoropropyl)azetidin-3-ylidene)methyl)phenyl)-6,7-dihydro-5H-benzo[7]annulene-3-carboxylic acid], the “% Degradation At 0.3 μM” value is reported as 94%. Half-maximal inhibition under setting [1] (IC50) required 0.5 nM.

Take `O=C(O)c1ccc2c(c1)CCCC(c1ccc(C(F)F)cc1)=C2c1ccc(C=C2CN(CCCF)C2)cc1` [Compound 55, 8-(4-(difluoromethyl)phenyl)-9-(4-((1-(3-fluoropropyl)azetidin-3-ylidene)methyl)phenyl)-6,7-dihydro-5H-benzo[7]annulene-3-carboxylic acid]: the “% Degradation At 0.3 μM” value is given as 94%. The IC50 under setting [1] is 0.6 nM.

Take `CCc1cc(C(F)(F)F)ccc1C1=C(c2ccc(C=C3CN(CCCF)C3)cc2)c2ccc(C(=O)O)cc2CCC1` [Compound 25, 8-(2-ethyl-4-(trifluoromethyl)phenyl)-9-(4-((1-(3-fluoropropyl)azetidin-3-ylidene)methyl)phenyl)-6,7-dihydro-5H-benzo[7]annulene-3-carboxylic acid]: the “% Degradation At 0.3 μM” value turned out to be 91%. The same compound came in with an IC50 under setting [1] of 0.4 nM.

For the compound `COc1cccc(Cl)c1C1=C(c2ccc(C=C3CN(CCCF)C3)cc2)c2ccc(C(=O)O)cc2CCC1` [Compound 23, 8-(2-chloro-6-methoxyphenyl)-9-(4-((1-(3-fluoropropyl)azetidin-3-ylidene)methyl)phenyl)-6,7-dihydro-5H-benzo[7]annulene-3-carboxylic acid], the “% Degradation At 0.3 μM” value is on record as 91%. Under setting [1], this compound registered an IC50 of 0.4 nM.

As for `Cc1ccc(C(F)(F)F)c(C)c1C1=C(c2ccc(C=C3CN(CCCF)C3)cc2)c2ccc(C(=O)O)cc2CCC1` [Compound 84, 8-(2,6-dimethyl-3-(trifluoromethyl)phenyl)-9-(4-((1-(3-fluoropropyl)azetidin-3-ylidene)methyl)phenyl)-6,7-dihydro-5H-benzo[7]annulene-3-carboxylic acid], the “% Degradation At 0.3 μM” value was determined as 91%. The compound further returned an IC50 under setting [1] of 0.6 nM.

With `Cc1cc(C)c(C2=C(c3ccc(C=C4CN(CCCF)C4)cc3)c3ccc(C(=O)O)cc3CCC2)c(C)c1` [Compound 10, 9-(4-((1-(3-fluoropropyl)azetidin-3-ylidene)methyl)phenyl)-8-mesityl-6,7-dihydro-5H-benzo[7]annulene-3-carboxylic acid], the “% Degradation At 0.3 μM” value is reported as 93%. For the same compound, the IC50 under setting [1] amounted to 0.5 nM.

As to `Cc1c(C2=C(c3ccc(C=C4CN(CCCF)C4)cc3)c3ccc(C(=O)O)cc3CCC2)ccc(C(F)(F)F)c1F` [Compound 73, 8-(3-fluoro-2-methyl-4-(trifluoromethyl)phenyl)-9-(4-((1-(3-fluoropropyl)azetidin-3-ylidene)methyl)phenyl)-6,7-dihydro-5H-benzo[7]annulene-3-carboxylic acid], the “% Degradation At 0.3 μM” value is reported as 85%. Besides, the DC50 (4 hours post compound addition, concentration which degrades 50% of the estrogen receptor, read-out: Degradation IC50) was 0.3 nM.

Source of the values: patent US20250255848A1, “SUBSTITUTED 6,7-DIHYDRO-5H-BENZO[7]ANNULENE DERIVATIVES, PROCESSES FOR THEIR PREPARATION AND THERAPEUTIC USES THEREOF” (SANOFI, priority 2022, published 2025).
